These results are taken from ChEMBL document CHEMBL3045700, “Synthesis and in vitro and in vivo antimalarial activity of novel 4-anilinoquinoline Mannich base derivatives” (2011).

The source made the active and inactive calls. The calls are words filed in the database; no cut-off is given here.

Assay [1] concerns Plasmodium falciparum. The experiment in a line: Antimalarial activity against chloroquine-sensitive Plasmodium falciparum 3D7 assessed as inhibition of schizont maturation at 2 ug/ml after 36 to 40 hr incubation by Giemsa staining. It counts as functional.
The subject of assay [2] is Plasmodium yoelii. The experiment in a line: Antimalarial activity against chloroquine-resistant Plasmodium yoelii infected Swiss mouse assessed as mouse showing nil parasitemia at 500 mg/kg, po qd for 4 days measured on day 10. The arrangement: dose 500 mg/kg. It counts as functional, organism-based.
For assay [3], the system named is Plasmodium falciparum. The experiment in a line: Antimalarial activity against chloroquine-sensitive Plasmodium falciparum 3D7 assessed as inhibition of schizont maturation at 1 ug/ml after 36 to 40 hr incubation by Giemsa staining. It counts as functional.
The test system of assay [4] is Plasmodium falciparum. The experiment in a line: Antimalarial activity against chloroquine-sensitive Plasmodium falciparum 3D7 assessed as inhibition of schizont maturation at 0.063 ug/ml after 36 to 40 hr incubation by Giemsa staining. It counts as functional.
The test system of assay [5] is Plasmodium falciparum. The experiment in a line: Antimalarial activity against chloroquine-sensitive Plasmodium falciparum 3D7 assessed as inhibition of schizont maturation at 0.25 ug/ml after 36 to 40 hr incubation by Giemsa staining. It counts as functional.
The test system of assay [6] is Plasmodium yoelii. Nature of the assay: Antimalarial activity against chloroquine-resistant Plasmodium yoelii infected Swiss mouse assessed as suppression parasitemia at 500 mg/kg, po qd for 4 days. It counts as functional.
Assay [7] concerns Plasmodium yoelii. The experiment in a line: Antimalarial activity against chloroquine-resistant Plasmodium yoelii infected Swiss mouse assessed as mouse showing nil parasitemia at 500 mg/kg, po qd for 4 days measured on day 7. It counts as functional, organism-based. Details: dose 500 mg/kg.
Assay [8] deals with Plasmodium falciparum. Nature of the assay: Antimalarial activity against chloroquine-sensitive Plasmodium falciparum 3D7 assessed as inhibition of schizont maturation at 0.031 ug/ml after 36 to 40 hr incubation by Giemsa staining. It counts as functional.
The subject of assay [9] is Plasmodium falciparum. The experiment in a line: Antimalarial activity against chloroquine-sensitive Plasmodium falciparum 3D7 assessed as inhibition of schizont maturation at 10 ug/ml after 36 to 40 hr incubation by Giemsa staining. It counts as functional.
The subject of assay [10] is Plasmodium yoelii. The experiment in a line: Antimalarial activity against chloroquine-resistant Plasmodium yoelii infected Swiss mouse assessed as mouse showing nil parasitemia at 500 mg/kg, po qd for 4 days measured on day 4. Details: dose 500 mg/kg. It counts as functional, organism-based.
The subject of assay [11] is Plasmodium falciparum. Nature of the assay: Antimalarial activity against chloroquine-sensitive Plasmodium falciparum 3D7 assessed as inhibition of schizont maturation at 0.5 ug/ml after 36 to 40 hr incubation by Giemsa staining. It counts as functional.
Assay [12] deals with Plasmodium falciparum. The experiment in a line: Antimalarial activity against chloroquine-sensitive Plasmodium falciparum 3D7 assessed as inhibition of schizont maturation at 0.125 ug/ml after 36 to 40 hr incubation by Giemsa staining. It counts as functional.
In assay [13] the test system is Plasmodium falciparum. The experiment in a line: Antimalarial activity against chloroquine-sensitive Plasmodium falciparum 3D7 assessed as inhibition of schizont maturation at 100 ug/ml after 36 to 40 hr incubation by Giemsa staining. It counts as functional.
Assay [14] concerns Plasmodium falciparum. Nature of the assay: Antimalarial activity against chloroquine-sensitive Plasmodium falciparum 3D7 assessed as inhibition of schizont maturation at 50 ug/ml after 36 to 40 hr incubation by Giemsa staining. It counts as functional.
Assay [15] has as its system Plasmodium falciparum. Nature of the assay: Antimalarial activity against chloroquine-sensitive Plasmodium falciparum RKL-2 assessed as dead rings and schizonts at 0.4 ug/ml after 36 to 40 hr incubation by Giemsa staining. It counts as functional.
For assay [16], the system named is Plasmodium falciparum. The experiment in a line: Antimalarial activity against chloroquine-sensitive Plasmodium falciparum 3D7 assessed as inhibition of schizont maturation at 0.0625 ug/ml after 36 to 40 hr incubation by Giemsa staining. It counts as functional.
The subject of assay [17] is Plasmodium falciparum. The experiment in a line: Antimalarial activity against chloroquine-sensitive Plasmodium falciparum RKL-2 assessed as dead rings and schizonts at 100 ug/ml after 36 to 40 hr incubation by Giemsa staining. It counts as functional.

A word on the inhibition: it is the share of the control response that was lost under treatment. Regarding `Oc1ccc(Nc2ccnc3cc(Cl)ccc23)cc1CN1CCOCC1`, the inhibition at 2 µg/mL with Plasmodium falciparum [1] was determined as 100%. For the same molecule, the outcome with Plasmodium yoelii [2], in the assay with Plasmodium yoelii [7] and in the assay with Plasmodium yoelii [10] was Active. For the same molecule, the inhibition at 1 µg/mL in the assay on Plasmodium falciparum [3] was determined as 100%. Moreover, in the assay with Plasmodium falciparum [4], the inhibition at 0.063 µg/mL was 100%. Further, the inhibition at 0.25 µg/mL in the assay on Plasmodium falciparum [5] is 100%. For the same molecule, in the assay on Plasmodium yoelii [6], the Activity is 100%. For the same molecule, the inhibition at 0.031 µg/mL with Plasmodium falciparum [8] was found to be 73.3%. Also, in the assay on Plasmodium falciparum [9], the inhibition at 10 µg/mL is 100%. Also, the inhibition at 0.5 µg/mL in the assay on Plasmodium falciparum [11] amounted to 100%. The inhibition at 0.125 µg/mL in the assay with Plasmodium falciparum [12] worked out at 100%. For the same molecule, the inhibition at 100 µg/mL in the assay with Plasmodium falciparum [13] stood at 100%. For the same molecule, the inhibition at 50 µg/mL with Plasmodium falciparum [14] worked out at 100%.
For `Oc1ccc(Nc2ccnc3cc(Cl)ccc23)cc1CN(c1ccccc1)c1ccccc1`, the inhibition at 100 µg/mL in the assay on Plasmodium falciparum [13] worked out at 38.9%. Moreover, the inhibition at 50 µg/mL in the assay on Plasmodium falciparum [14] came to 0.05%.
For `CCN(CC)CCCC(C)Nc1ccnc2cc(Cl)ccc12` (stereo not given) [CHLOROQUINE], in the assay with Plasmodium falciparum [5], the inhibition at 0.25 µg/mL was determined as 100%. For the same molecule, in the assay on Plasmodium falciparum [15], the Activity was determined as 54%. Besides, the inhibition at 0.0625 µg/mL in the assay on Plasmodium falciparum [16] stood at 88.4%. Also, the inhibition at 0.5 µg/mL with Plasmodium falciparum [11] is 100%. In addition, in the assay with Plasmodium falciparum [12], the inhibition at 0.125 µg/mL stood at 97.1%.
Turning to `CCCNCc1cc(Nc2ccnc3cc(Cl)ccc23)ccc1O`, in the assay with Plasmodium falciparum [17], the Activity is given as 6.5%.
Still for that read-out and setting: the figure for `CCCCN(CCCC)Cc1cc(Nc2ccnc3cc(Cl)ccc23)ccc1O` is 5%.
The same measure, in the same setting: the figure for `CC(C)N(Cc1cc(Nc2ccnc3cc(Cl)ccc23)ccc1O)C(C)C` is 3%.
Turning to `CCCCNCc1cc(Nc2ccnc3cc(Cl)ccc23)ccc1O`, in the assay with Plasmodium falciparum [1], the inhibition at 2 µg/mL came out at 82.2%. Besides, the inhibition at 1 µg/mL in the assay with Plasmodium falciparum [3] stood at 71.1%. Besides, the inhibition at 10 µg/mL in the assay with Plasmodium falciparum [9] came out at 100%. Besides, the inhibition at 100 µg/mL with Plasmodium falciparum [13] was 100%. The inhibition at 50 µg/mL with Plasmodium falciparum [14] came out at 100%.
As to `CC(C)NCc1cc(Nc2ccnc3cc(Cl)ccc23)ccc1O`, the Activity with Plasmodium falciparum [17] came out at 6.5%.
